Broadly, the EC50 is the concentration at which the effect is half-maximal. Lower therefore signals an effect from little substance.

We go through 24 compounds from ChEMBL document CHEMBL4765428, “Design, synthesis, and electrophysiological evaluation of NS6740 derivatives: Exploration of the structure-activity relationship for alpha7 nicotinic acetylcholine receptor silent activation” (Eur J Med Chem, 2020).

For assay [1], the target named is T1, Neuronal acetylcholine receptor subunit alpha-7 (Homo sapiens, UniProt P36544). The assay is described as follows: Partial agonist activity at human alpha7 nAChR expressed in Xenopus laevis oocytes assessed as residual potentiation of Ach response at 10 uM at -60 mV holding potential by measuring net charge preincubated with compound followed by Ach addition after PNU-120596 addition by two electrode voltage-clamp assay. It is filed as cell-based. As to conditions: Oocyte. In general terms: In two-electrode clamp one electrode senses voltage and the other passes current.

The target in assay [2] is T1, Neuronal acetylcholine receptor subunit alpha-7. The assay is described as follows: Partial agonist activity at human alpha7 nAChR expressed in Xenopus laevis oocytes at 10 uM at -60 mV holding potential by measuring net charge by two electrode voltage-clamp assay. As to conditions: Oocyte. The assay is classed as cell-based.
Assay [3] shares this target. The assay is described as follows: Partial agonist activity at human alpha7 nAChR expressed in Xenopus laevis oocytes assessed as direct potentiation of Ach response at 10 uM at -60 mV holding potential by measuring net charge co-application of compound and PNU-120596 by two electrode voltage-clamp assay. The assay is classed as cell-based. As to conditions: Oocyte.

The target is the same in assay [4]. In words: Partial agonist activity at human alpha7 nAChR expressed in Xenopus laevis oocytes at -60 mV holding potential by two electrode voltage-clamp assay. The assay is classed as cell-based, Oocyte. As to conditions: for Imax: Oocyte, filed as partial agonist.
For assay [5] the target is unchanged. The assay is described as follows: Partial agonist activity at human alpha7 nAChR expressed in Xenopus laevis oocytes assessed as inhibition of Ach response at 10 to 30 uM at -60 mV holding potential by measuring net charge preincubated with compound followed by Ach addition by two electrode voltage-clamp assay. As to conditions: Oocyte, dose 10-30 µM. It is filed as cell-based.

Assay [6] has the same target. The assay is described as follows: Partial agonist activity at human alpha7 nAChR expressed in Xenopus laevis oocytes at 1 to 30 uM at -60 mV holding potential by two electrode voltage-clamp assay. The conditions noted are these: Oocyte, dose 1-30 µM. It is filed as cell-based.
Assay [7] shares this target. In words: Partial agonist activity at human alpha7 nAChR expressed in Xenopus laevis oocytes assessed as residual potentiation of Ach response at 3 uM at -60 mV holding potential by measuring net charge preincubated with compound followed by Ach addition after PNU-120596 addition by two electrode voltage-clamp assay. It is filed as cell-based. As to conditions: Oocyte, filed as partial agonist.

Assay [8] has the same target. The assay is described as follows: Partial agonist activity at human alpha7 nAChR expressed in Xenopus laevis oocytes assessed as residual potentiation of Ach response at 30 uM at -60 mV holding potential by measuring net charge preincubated with compound followed by Ach addition after PNU-120596 addition by two electrode voltage-clamp assay. It is filed as cell-based. The conditions noted are these: Oocyte, filed as partial agonist.

For assay [9] the target is unchanged. The assay is described as follows: Partial agonist activity at human alpha7 nAChR expressed in Xenopus laevis oocytes assessed as inhibition of Ach response at 30 uM at -60 mV holding potential by measuring net charge preincubated with compound followed by Ach stimulation by two electrode voltage-clamp assay. The conditions noted are these: Oocyte, filed as partial agonist. It is filed as cell-based.

For assay [10] the target is unchanged. The assay is described as follows: Partial agonist activity at human alpha7 nAChR expressed in Xenopus laevis oocytes assessed as direct potentiation of Ach response at 30 uM at -60 mV holding potential by measuring net charge co-application of compound and PNU-120596 by two electrode voltage-clamp assay. It is filed as cell-based. The conditions noted are these: Oocyte, filed as partial agonist.

Assay [11] has the same target. In words: Partial agonist activity at human alpha7 nAChR expressed in Xenopus laevis oocytes assessed as inhibition of Ach response at 3 uM at -60 mV holding potential by measuring net charge preincubated with compound followed by Ach stimulation by two electrode voltage-clamp assay. The assay is classed as cell-based. The conditions noted are these: Oocyte.

Active and inactive are the calls of the source. No cut-off for these calls is given here.

T1 sequence (P36544 whole entry): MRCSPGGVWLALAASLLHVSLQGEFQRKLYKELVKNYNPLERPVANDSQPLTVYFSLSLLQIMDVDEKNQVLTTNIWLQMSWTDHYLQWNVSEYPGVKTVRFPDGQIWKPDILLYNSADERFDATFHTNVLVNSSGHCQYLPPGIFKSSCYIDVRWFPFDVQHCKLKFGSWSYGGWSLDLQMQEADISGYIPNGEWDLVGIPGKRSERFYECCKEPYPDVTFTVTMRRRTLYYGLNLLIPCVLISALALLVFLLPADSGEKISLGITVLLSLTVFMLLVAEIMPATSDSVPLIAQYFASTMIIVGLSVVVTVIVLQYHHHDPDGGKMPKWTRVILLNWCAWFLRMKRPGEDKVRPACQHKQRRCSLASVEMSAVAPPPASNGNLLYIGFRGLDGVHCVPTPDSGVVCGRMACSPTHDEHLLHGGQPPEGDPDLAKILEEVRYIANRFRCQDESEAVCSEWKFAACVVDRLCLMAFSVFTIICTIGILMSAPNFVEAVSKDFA

As to `C[N+]12CCC(CC1)N(C(=O)c1ccc(-c3cccc(C(F)(F)F)c3)o1)CC2`, the Activity in assay [1] (filed as partial agonist) was 1.39; in [2] (filed as partial agonist), 0.79. For the same compound, the outcome in assay [3] (filed as partial agonist) was Active. Further, the half-maximal effective concentration (EC50) in assay [4] worked out at 322 nM. Moreover, in assay [4], the Imax stood at 0.81.
Take `O=C(c1ccc(-c2cccc(C(F)(F)F)c2)o1)N1CC2CCN(CC2)C1`: the result in [5], in assay [1], in [2] and in assay [3] was inactive.
Turning to `O=C(c1ccc(-c2cccc(C(F)(F)F)c2)o1)N1C[C@H]2C[C@@H]1CN2`, the result in assay [5], in assay [1] and in [2] was inactive. In [3] (filed as partial agonist), the Activity is 43.7.
With `O=C(c1ccc(-c2cccc(I)c2)o1)N1CCN2CCC1CC2`, the outcome in assay [5] (filed as partial agonist) and in assay [1] (filed as partial agonist) was Active. In [2], the result was inactive.
As to `O=C(c1ccc(-c2cccc(C(F)(F)F)c2)o1)N1C[C@@H]2C[C@H]1CN2`, the result in [5], in [1] and in assay [2] was inactive. Also, the Activity in [3] (filed as partial agonist) was determined as 15.2.
As for `O=C(c1ccco1)N1CCN2CCC1CC2`, the result in assay [1] was inactive. Also, the Activity in [2] (filed as partial agonist) was 0.71. In addition, the result in [3] (filed as partial agonist) was Active. In assay [4], a half-maximal response (EC50) required 764 nM and the Imax is 0.71.
Consider `Cc1cccc(-c2ccc(C(=O)N3CCN4CCC3CC4)o2)c1`, for which the Activity was 0.2 in assay [5] (filed as partial agonist) and 30.7 in [1] (filed as partial agonist). Besides, in assay [2], the result was inactive.
Regarding `CC(=O)N1CCN2CCC1CC2`, the result in [1] and in assay [2] was inactive. Also, the outcome in assay [3] (filed as partial agonist) was Active.
Regarding `O=C(c1ccc(-c2ccc(C(F)(F)F)cc2)o1)N1CCN2CCC1CC2`, the Activity in [5] (filed as partial agonist) was 0.64; in assay [1] (filed as partial agonist), 3.23; in assay [2] (filed as partial agonist), 0.4; in [3] (filed as partial agonist) it was 6.25.
Take `O=C(c1ccc(-c2cccc(F)c2)o1)N1CCN2CCC1CC2`: the result in assay [5] (filed as partial agonist) and in assay [1] (filed as partial agonist) was Active. For the same compound, the outcome in assay [2] was inactive.
For `O=C(c1ccc(-c2cccc(Br)c2)o1)N1CCN2CCC1CC2`, the outcome in assay [5] (filed as partial agonist) and in assay [1] (filed as partial agonist) was Active. Moreover, the outcome in assay [2] was inactive.
With `O=C(c1ccc(-c2cncc3ccccc23)o1)N1CCN2CCC1CC2`, the results for the Activity in assay [5] (filed as partial agonist), in assay [2] (filed as partial agonist) and in assay [3] (filed as partial agonist) were 0.94, 0.11 and 20.4, respectively. Besides, the result in assay [1] was inactive.
Consider `O=C(c1ccc(-c2cccc(Cl)c2)o1)N1CCN2CCC1CC2`, for which the Activity in assay [5] stood at 0.04. Besides, the outcome in assay [1] (filed as partial agonist) was Active. Further, the outcome in [2] was inactive.
As to `FC(F)(F)c1cccc(-c2ccc(CN3CCN4CCC3CC4)o2)c1`, the result in assay [1], in [2] and in assay [3] was inactive.
As for `CCN1CCN2CCC1CC2`, the result in [5], in assay [2] and in [3] was inactive.
Take `O=C(c1ccc(-c2cccc(O)c2)o1)N1CCN2CCC1CC2`: the outcome in [5] and in assay [2] was inactive. Further, in [1] (filed as partial agonist), the outcome was Active.
For the compound `O=C(c1ccc(-c2cccc(C(F)(F)F)c2)o1)N1CCN2CCC1CC2`, the result in assay [6] and in [11] was inactive. Further, the Activity in [5] (filed as partial agonist) turned out to be 0.19; in [7], 123; in [1] (filed as partial agonist) it was 111; in [8], 57.4; in assay [9] it was 0.18; in assay [10], 2.73.
For the compound `CCN(CC)C(=O)c1ccc(-c2cccc(C(F)(F)F)c2)o1`, the result in assay [5], in assay [1], in [2] and in assay [3] was inactive.
For `O=C(c1ccc(-c2ccoc2)o1)N1CCN2CCC1CC2`, the outcome in assay [5] (filed as partial agonist), in [1] (filed as partial agonist) and in [2] (filed as partial agonist) was Active.
In the case of `O=C(c1ccc(-c2cccc([N+](=O)[O-])c2)o1)N1CCN2CCC1CC2`, the result in assay [5] and in assay [2] was inactive. Also, the Activity in assay [1] (filed as partial agonist) is 4.78; in assay [3] (filed as partial agonist), 12.2.
On to `C1CN2CCC(CC2)N1`, for which the result in [5], in assay [1], in assay [2] and in assay [3] was inactive.
On to `O=C(c1ccc(-c2ccc3ccccc3c2)o1)N1CCN2CCC1CC2`, for which the values for the Activity in assay [5] (filed as partial agonist) and in [2] (filed as partial agonist) were 1.18 and 0.15, respectively. Also, the result in assay [1] and in [3] was inactive.
Take `O=C(c1ccc(-c2ccccc2)o1)N1CCN2CCC1CC2`: the figures for the Activity in [5] (filed as partial agonist), in assay [1] (filed as partial agonist) and in assay [2] (filed as partial agonist) were 0.14, 18.3 and 0.54, respectively.
For the compound `Nc1cccc(-c2ccc(C(=O)N3CCN4CCC3CC4)o2)c1`, the Activity in assay [5] (filed as partial agonist) is 0.5; in [2] (filed as partial agonist), 0.1; in assay [3] (filed as partial agonist), 24.6.
